Assay results: US7893299B2, “Interleukin-1 and tumor necrosis factor-αmodulators; syntheses of such modulators and methods of using such modulators” (Nereus Pharmaceuticals, Inc., priority 2005, dated 2011)
“Also recorded” adds a separate entry of the source. Where two headings read alike, the source gives them in different places.

What was measured:
[1] = tested on: IκBα phosphorylation; assay: phosphorylation level of IκBα induced by LPS in RPMI 8226 cells; assay type: cell-based; conditions: formula (IIB-A1) 13 μM, TTL3 10 μM, 50 ng/ml LPS
Method: One ml/well of 2×10^6/ml RPMI 8226 cells (#CCL-155C, American Type Culture Collection) were seeded in 6-well plate in LGM-3 medium and cultured for overnight at 37° C., 5% CO2 and 95% humidified air. TTL3 and formula (IIB-A1) were added to RPMI 8226 cells at the final concentration of 10 μM and 13 μM for 1 hr, respectively. DMSO was used as a control. Cells were then stimulated with 50 ng/ml LPS diluted in LGM-3 medium from 1 mg/ml stock solution for 30 min, 1 hr, 2 hr and 4 hr. At the end of each time point, cells were harvested by centrifugation and cell pellets were washed once in ice-cold 1× DPBS. To prepare samples for SDS-PAGE, cells were lysed in RIPA buffer (50 mM Tris-HCl, pH7.4, 0.9% NaCl, 1% Triton X-100, 0.25% Na-deoxycholate, 1 mM EDTA, 2 mM Na3VO4 and 1× protease inhibitors cocktail) for 15 min on ice. Cell lysates were cleared by centrifugation at 14,000 rpm, 4° C. for 10 min. Protein concentrations of cell lysates were determined by BCA protein assay kit prior to SDS-PAGE. Equal amount of proteins from various cell lysates were resolved on 10% NuPage MES precast gels and transferred to nitrocellulose membranes according to the manufacturer's instructions. After transfer membranes were first blocked in BLOTTO (5% Non-fat dry milk in 1× DPBS buffer containing 0.1% Tween-20) at room temperature for 2 hr and then incubated with appropriate primary antibodies: anti-phospho-IκBα (1:1000) or anti-Tubulin (1:2000) for 2 hr. Antibody against tubulin was used as a control to confirm the equal loading of each sample. After the primary antibody incubation, membranes were washed briefly 2-3 times for 10 min each with BLOTTO and again incubated with sheep anti-mouse HRP conjugated secondary antibody for 1 hr. Following the secondary antibody incubation, membranes were washed extensively 4 times for 15 min each with PBST (1× DPBS plus 0.1% Tween-20). HRP activity was visualized by the enhanced chemiluminescence (ECL) detection system.

[2] = tested on: D-GalN/LPS endotoxic shock; assay: lethality induced by D-GalN/LPS in mice; assay type: in vivo, BALB/c mice; conditions: 5 μmol/kg i.p. 1 hour prior to D-GalN/LPS
Method: Male BALB/c mice, 8 to 10 weeks old were induced an endotoxic shock. The lethal injury was produced by an intraperitoneal (i.p.) injection of LPS (2 μg/kg) in combination with D-GalN (800 mg/kg). 5 μmol/kg of TTL3 or formula (IIB-A1) were administered by i.p. injection (0.5 ml) 1 hour prior to the challenge of D-GalN/LPS. Saline was given to the control animals. The lethality was monitored until 24 h after the administration of D-GalN/LPS.

[3] = tested on: HEK-293 cells; assay: cell growth inhibition, HEK-293, Resazurin, 1% FBS; assay type: cell-based, Human; conditions: 48 hr of drug exposure
Method: Human prostate adenocarcinoma (PC-3; CRL-1435), multiple myeloma (RPMI 8226; CCL-155) and embryonic kidney (HEK-293; CRL-1573) cells were all purchased from ATCC and maintained in appropriate culture media. The cells were cultured in an incubator at 37° C. in 5% CO2 and 95% humidified air.
For cell growth inhibition assays, PC-3 and HEK-293 cells were seeded at 5×10^3 and 1.5×10^3 cells/well respectively in 90 μl media containing 1% (v/v) FBS into 96 well (Corning; 3904) black-walled, clear-bottom tissue culture plates and the plates were incubated overnight to allow cells to establish and enter log phase growth. RPMI 8226 cells were seeded at 2×10^4 cells/well respectively in 90 μl media containing 1% (v/v) FBS into 96 well plates on the day of the assay. 4 mg/ml stock solutions of the compounds were prepared in 100% DMSO and stored at −20° C. The compounds were serially diluted and added in triplicate to the test wells. LT-1-85 was tested at concentrations ranging from 27 μM to 8.6 nM. Concentrations ranging from 30 μM to 9.7 nM were tested for CC-3-13P. Formula (IIB-A1) was tested at concentrations ranging from 26 μM to 8.4 nM. The plates were returned to the incubator for 48 hours. The final concentration of DMSO was 0.25% in all samples.
Following 48 hours of drug exposure, 10 μl of 0.2 mg/ml Resazurin in Mg2+, Ca2+ free phosphate buffered saline was added to each well and the plates were returned to the incubator for 3-6 hours. Since living cells metabolize Resazurin, the fluorescence of the reduction product of Resazurin was measured using a Fusion microplate fluorometer (Packard Bioscience) with λex=535 nm and λem=590 nm filters. Resazurin dye in medium without cells was used to determine the background, which was subtracted from the data for all experimental wells. […] Where the maximum inhibition of cell growth was less than 50%, an EC50 value was not determined. The data in Table 25 summarize the growth inhibitory effects of LT-1-85, CC-3-13P and formula (IIB-A1) against HEK-293, PC-3 and RPMI 8226 cells. […]

[4] = tested on: HPBMC; assay: HPBMC cell viability, Resazurin; assay type: cell-based, Human; conditions: for EC50: HPBMC, 24 hr drug exposure, read-out: EC50 Inhibition of cell growth
Method: Eighty μl of 3.1×10^5/ml Human Peripheral Blood Mononuclear cells (HPBMC) were seeded in Costar 3904 96-well plate in LGM-3 medium and cultured for 12 hr at 37° C., 5% CO2 and 95% humidified air. 10 μl of 8-point half-log serial dilutions of LT-1-85, CC-3-19, CC-3-13P, formula (IIB-A1) and CC-3-22 prepared in LGM-3 medium was added to the cells and incubated for 1 hr. Subsequently, 10 μl of 500 ng/ml lipopolysaccharide (LPS) diluted in LGM-3 medium from 1 mg/ml stock solution was added to the cells and incubation proceeded for another 4 hr at 37° C., 5% CO2 and 95% humidified air. SB203580, a known p38 MAP kinase inhibitor and DMSO were used as positive and negative controls, respectively. After 4 hr stimulation with LPS, the level of TNF-α from each sample was analyzed by using the human TNF-α cytoset ELISA kit. EC50 values (the drug concentration at which 50% of the maximal observed TNF-α production is inhibited) were determined using a standard sigmoidal dose response curve fitting algorithm (Prism 2.0, GraphPad Software Inc). A duplicate set of cell plates were assayed for cell viability using the Resazurin dye after the cells were incubated with test compounds for 24 hr. The fluorescence of the reduction product of Resazurin was measured using a Fusion microplate fluorometer (Packard Bioscience) with λex=535 nm and λem=590 nm filters. EC50 values (the drug concentration at which 50% of the maximal observed growth inhibition is established) were determined using a standard sigmoidal dose response curve fitting algorithm (Prism 2.0, GraphPad Software Inc).

Structure (SMILES): C=C[C@@]1(C)CCC=C2[C@H]1CC[C@@H]1[C@](C)(C(=O)NC3CCCCC3)CCC[C@@]21C [Formula (IIB-A1), N-Cyclohexylamide Derivative of TTL]
- level of IκBα phosphorylation induced by LPS in RPMI 8226 cells [1]: decrease
- level of IκBα phosphorylation induced by LPS in RPMI 8226 cells ([1]; listed as formula (IIB-A1)): greatly reduced
- protection against lethality / survival time [2]: delay D-GalN/LPS lethality
- protection against lethality / survival time ([2]; listed as formula (IIB-A1)): extending three folds the survival time
- EC50 ([3]; Homo sapiens, HEK293, 48 h): > 26 µM
- EC50 ([4]; Homo sapiens, 24 h): > 26 µM
- cell growth of HPBMC (in words) ([4]; concentrations up to 26 μM): did not inhibit

Structure (SMILES): C=C[C@@]1(C)CCC=C2[C@H]1CC[C@@H]1[C@](C)(C(=O)OC)CCC[C@@]21C [TTL3]
- level of IκBα phosphorylation induced by LPS in RPMI 8226 cells [1]: minimal
- protection against lethality / survival time [2]: extending three folds the survival time; also recorded: delay D-GalN/LPS lethality

Structure (SMILES): C=C[C@@]1(C)CCC=C2[C@H]1CC[C@@H]1[C@](C)(C(=O)N3CCOCC3)CCC[C@@]21C [LT-1-85]
- EC50 [3]: 22 µM
- EC50 ([3]; Homo sapiens, HEK293, 48 h): 23 µM
- EC50 [4]: 3.6 µM
- EC50 ([4]; Homo sapiens, 24 h): 3.8 µM
